Laboratory results as given in patent publication US20250215039A1, “NUCLEOSIDES FOR TREATING CANCER” (PRIMEFOUR THERAPEUTICS, INC., priority 2022, published 2025).
Read-outs that look alike come from different tables or passages of the source.

Experiments:
cancer cell lines = assay: Cancer cell proliferation activity (CellTiterGlo, 72 h); format: cell-based; conditions: 72 h, 72 h, read-out: IC50 cell proliferation
Summary of the method: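 Readout is CellTiterGlo luminescence after 72 h compound exposure (0.1% DMSO final), started one day post-seeding, at 37 °C.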

[1] = target: human cytidine deaminase (CDA) (Homo sapiens, UniProt P32320); assay: Metabolism by human cytidine deaminase (CDA), substrate absorbance at 290 nm; conditions: rate of substrate conversion at 200 μM; could not be fitted
human cytidine deaminase (CDA), sequence (P32320 whole entry): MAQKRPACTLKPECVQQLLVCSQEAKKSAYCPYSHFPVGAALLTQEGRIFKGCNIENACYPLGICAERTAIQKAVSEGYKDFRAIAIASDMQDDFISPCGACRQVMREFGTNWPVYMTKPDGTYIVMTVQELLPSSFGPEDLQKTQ
Protocol: Transfer 7.2 μl of each of the substrate DMSO stock in step 2 into a 500 μl 96-Well V-bottom Microplate, clear SBS footprint, cat #P-96-450V-C
Add 352.8 μl assay buffer to the wells
For deaminated product compounds mix 4 μl product with 196 μl assay buffer
This was incubated at 37° C. for 1 h. 200 μl of this mixture was transferred into the assay plate to serve as the product control.
Product+buffer: mix 80 ul of the 2.5× intermediate product stocks (from step 3) with 120 ul assay buffer into product control (no enzyme) wells
Incubate the plate alongside the 20 nM CDA enzyme intermediate stock at 37° C. to temperature equilibrate reagents
Add 120 μl of the 20 nM enzyme mix into the Substrate+CDA wells and start reading at 290 nm every 30 s for about 60 min
50 and 200 uM substrate and product
In 100 mM Tris, pH 7.5, 100 mM KCl, 0.8% carryover DMSO
5 min incubation at 37° C.
Absorbance at 290 nm every 30 s at 37° C. for 1 h using FlexStation 3
Convert A290 to concentration of substrate remaining at time t after enzyme addition:
[formula] • where: • St=absorbance reading of: substrate+CDA wells at time t • So=Average absorbance reading of: substrate+buffer wells • Po=Average absorbance reading of: product+buffer wells • [S]t=initial substrate concentration • Use GraphPad to plot [substrate] against time to calculate initial velocity or slope (μMs^−1) i.e. the linear range of each curve • Express rate in s^−1 by dividing initial velocity by the total enzyme concentration.
Plot rate against [substrate] and fit data to standard Michaelis Menten equation to obtain kcat and KM parameters.

Nc1ccn([C@H]2C[C@H](O)[C@](CO)(CF)O2)c(=O)n1 [Cpd. No. 198, 4-amino-1-((2R,4S,5R)-5-(fluoromethyl)-4-hydroxy-5-(hydroxymethyl)tetrahydrofuran-2-yl)pyrimidin-2(1H)-one]
IC50 (cancer cell lines; 5637 (bladder)): 450 nM | IC50 (cancer cell lines; CLS439 (bladder)): 2270 nM | IC50 (cancer cell lines; HS729 (muscle)): 580 nM | IC50 (cancer cell lines; J82 (bladder)): 760 nM | IC50 (cancer cell lines; JAR (placenta)): > 50000 nM | IC50 (cancer cell lines; MT3 (breast)): 80 nM | IC50 (cancer cell lines; PANCI (pancreas)): 620 nM | IC50 (cancer cell lines; PC3 (prostate)): 180 nM | IC50 (cancer cell lines; RD (muscle)): 1030 nM | IC50 (cancer cell lines; T24 (bladder)): 290 nM | IC50 (cancer cell lines; Homo sapiens, A204, 72 h, A204 (muscle)): 20 nM | IC50 (cancer cell lines; Homo sapiens, A549, 72 h, A549 (lung)): 440 nM | IC50 (cancer cell lines; Homo sapiens, A2780, 72 h, A2780 (ovary)): 720 nM | IC50 (cancer cell lines; Homo sapiens, A-375, 72 h, A375 (skin)): 710 nM | IC50 (cancer cell lines; Homo sapiens, A-431, 72 h, A431 (skin)): 470 nM | IC50 (cancer cell lines; Homo sapiens, ACHN, ACHN (kidney)): 390 nM | IC50 (cancer cell lines; Homo sapiens, ASPC1, 72 h, ASPC1 (pancreas)): 580 nM | IC50 (cancer cell lines; Homo sapiens, BT-20, 72 h, BT20 (breast)): 580 nM | IC50 (cancer cell lines; Homo sapiens, BXPC-3, 72 h, BXPC3 (pancreas)): 540 nM | IC50 (cancer cell lines; Homo sapiens, C-33-A, C33A (endometrial)): 240 nM | IC50 (cancer cell lines; Homo sapiens, CAKI-1, 72 h, CAKI1 (kidney)): 110 nM | IC50 (cancer cell lines; Homo sapiens, COLO 205, 72 h, COLO205 (colon)): 210 nM | IC50 (cancer cell lines; Homo sapiens, Caco-2, 72 h, CACO2 (colon)): > 50000 nM | IC50 (cancer cell lines; Homo sapiens, Calu-6, 72 h, CALU6 (lung)): 720 nM | IC50 (cancer cell lines; Homo sapiens, DU-145, 72 h, DU145 (prostate)): 310 nM | IC50 (cancer cell lines; Homo sapiens, EFO-21, 72 h, EFO21 (ovary)): 790 nM | IC50 (cancer cell lines; Homo sapiens, Granta-519, 72 h, GRANTA-519 (hematological)): 70 nM | IC50 (cancer cell lines; Homo sapiens, HCT-15, 72 h, HCT15 (colon)): 460 nM | IC50 (cancer cell lines; Homo sapiens, HCT-116, 72 h, HCT116 (colon)): 470 nM | IC50 (cancer cell lines; Homo sapiens, HEK293, 72 h, HEK293 (kidney)): > 50000 nM | IC50 (cancer cell lines; Homo sapiens, HT-1080, 72 h, HT1080 (connective tissue)): 380 nM | IC50 (cancer cell lines; Homo sapiens, HeLa, HELA (endometrial)): 1000 nM | IC50 (cancer cell lines; Homo sapiens, HepG2, 72 h, HEPG2 (liver)): 1000 nM | IC50 (cancer cell lines; Homo sapiens, Hs-578T, HS578T (breast)): 970 nM | IC50 (cancer cell lines; Homo sapiens, IGROV-1, 72 h, IGROV1 (ovary)): 510 nM | IC50 (cancer cell lines; Homo sapiens, JIMT-1, 72 h, JIMT1 (breast)): 190 nM | IC50 (cancer cell lines; Homo sapiens, Kasumi 1, 72 h, KASUMI-1 (hematological)): 270 nM | IC50 (cancer cell lines; Homo sapiens, L-363, 72 h, L-363 (hematological)): > 50000 nM | IC50 (cancer cell lines; Homo sapiens, LoVo, LOVO (colon)): 290 nM | IC50 (cancer cell lines; Homo sapiens, MDA-MB-231, 72 h, MDAMB231 (breast)): 100 nM | IC50 (cancer cell lines; Homo sapiens, MDA-MB-435, 72 h, MDAMB435 (skin)): 1300 nM | IC50 (cancer cell lines; Homo sapiens, MDA-MB-436, 72 h, MDAMB436 (breast)): 950 nM | IC50 (cancer cell lines; Homo sapiens, MG-63, 72 h, MG63 (bone)): 480 nM | IC50 (cancer cell lines; Homo sapiens, MINO, MINO (hematological)): 60 nM | IC50 (cancer cell lines; Homo sapiens, MV4-11, 72 h, MV4-11 (hematological)): 840 nM | IC50 (cancer cell lines; Homo sapiens, NCI-H23, 72 h, NCI-H23 (lung)): 720 nM | IC50 (cancer cell lines; Homo sapiens, NCI-H292, 72 h, NCIH292 (lung)): 920 nM | IC50 (cancer cell lines; Homo sapiens, NCI-H460, 72 h, NCIH460 (lung)): 770 nM | IC50 (cancer cell lines; Homo sapiens, OVCAR-3, 72 h, OVCAR3 (ovary)): 640 nM | IC50 (cancer cell lines; Homo sapiens, PLC-PRF-5, 72 h, PLCPRF5 (liver)): > 50000 nM | IC50 (cancer cell lines; Homo sapiens, Panc1005, 72 h, PANC1005 (pancreas)): > 50000 nM | IC50 (cancer cell lines; Homo sapiens, Ramos, RAMOS (hematological)): 240 nM | IC50 (cancer cell lines; Homo sapiens, SAOS-2, 72 h, SAOS2 (bone)): 110 nM | IC50 (cancer cell lines; Homo sapiens, SF-268, 72 h, SF268 (brain)): 260 nM | IC50 (cancer cell lines; Homo sapiens, SK-BR-3, 72 h, SKBR3 (breast)): 260 nM | IC50 (cancer cell lines; Homo sapiens, SK-HEP1, 72 h, SKHEP1 (liver)): 320 nM | IC50 (cancer cell lines; Homo sapiens, SK-LMS-1, 72 h, SKLMS1 (uterus)): 860 nM | IC50 (cancer cell lines; Homo sapiens, SK-N-SH, SKNSH (brain)): > 50000 nM | IC50 (cancer cell lines; Homo sapiens, SNB-75, 72 h, SNB75 (brain)): 550 nM | IC50 (cancer cell lines; Homo sapiens, SU-DHL10, 72 h, SU-DHL-10 (hematological)): 560 nM | IC50 (cancer cell lines; Homo sapiens, SU-DHL-6, 72 h, SU-DHL-6 (hematological)): 310 nM | IC50 (cancer cell lines; Homo sapiens, THP-1, 72 h, THP-1 (hematological)): 650 nM | IC50 (cancer cell lines; Homo sapiens, U-87 MG, U87MG (brain)): 400 nM | IC50 (cancer cell lines; Homo sapiens, UO-31, 72 h, UO31 (kidney)): 550 nM | IC50 (cancer cell lines; Homo sapiens, WSU-NHL, WSU-NHL (hematological)): 150 nM | IC50 (cancer cell lines; NCI-H358M, NCIH358M (lung)): 120 nM | IC50 (cancer cell lines; PBMC, PBMC (hematological)): 710 nM | IC50 (cancer cell lines; RD-ES, RDES (bone)): 1900 nM | substrate conversion by CDA (Inactive) [1]: Inactive
